# Reference: US20260083686A1, “METHODS FOR SUPPRESSING ACCUMULATION OF REFLUX-INDUCED PROTEIN ADDUCTS” (Vanderbilt University, priority 2018, published 2026)
# “Also recorded” adds a separate entry of the source.
# Assays:
# [1] = system: isoLG protein adducts in esophageal tissues; experiment: Surgical (esophagojejunostomy) reflux model in mice, isoLG adducts by immunohistochemistry with D11 antibody; format: in vivo; conditions: 2-HOBA 1 mg/ml in drinking water for 10 days; for accumulation of isoLG adducts in esophageal tissues in vivo: mice with surgically induced reflux
# Source text: To investigate the formation of isoLG protein adducts in the esophagus, The present inventors used a surgical model of esophageal reflux injury. To generate animals with reflux, a section of the mouse jejunum was transected and then anastomosed to the esophagus resulting in an increased reflux. […] Using immunohistochemistry with D11 antibody, the present inventors compared levels of isoLG protein adducts in esophageal epithelia of animals with reflux induced by surgery and control animals with sham surgery. Levels of isoLG adducts were also analyzed in surgical animals treated with isoLG scavenger 2-HOBA for 10 days. The present inventors found significant accumulation of isoLG protein adducts in esophageal animal tissues affected by reflux.
# Induction of Reflux in Mice: Reflux was induced by surgical procedure, esophagojejunal anastomosis, as previously described. Esophagojejunostomy was performed on fourteen 8-week-old 129SV mice according to the protocol approved by the Vanderbilt University Animal Care and Use Committee. Animals were then be allowed a 2-weeks recovery period on regular rodent chow ad libitum prior to were randomly assigned into two groups. First group of 7 mice with surgery was treated with 2-HOBA (1 mg/ml) delivered in drinking water for 10 days, while a control group (7 surgical animals) only received water. Additional control group of 5 animals with sham surgery received water. The esophagus and gastroesophageal junction areas from the test and control groups of animals were harvested, paraffin-embedded and analyzed by immunohistochemistry with D11 antibody. Indices of D11 positivity were scored and compared in test and control groups of animals.
# [2] = system: p53 isoLG protein adducts in EPC-2 cells; experiment: p53 immunoprecipitation and Western blot with D11 antibody for p53 isoLG adducts in BA/A-treated EPC-2 cells; format: cell-based, human; conditions: 2-HOBA 50 μM, p53 (DO-1) immunoprecipitation, D11 Western blot
# Method: To directly analyze p53 protein adducts, cellular lysates of EPC-2 cells, which were treated with BA/A in the presence or absence of 2-HOBA, were immunoprecipitated with p53 antibody. The immunoprecipitated p53 protein was then analyzed for the isoLG adducts by Western blotting with isoLG-specific D11 antibody.
# Treatment With Acidic Bile Salts (BA/A) and 2-HOBA: Cells were treated in acidic DMEM media (pH 4.0), containing bile salts cocktail at final concentration of 100 μM. The bile salt cocktail was prepared with a combination of glycocholic, taurocholic, glycodeoxycholic, glycochenodeoxycholic and deoxycholic sodium salts (all reagents were from Sigma-Aldrich, St. Louis, MO) at a concentration of 20 μM each. TE-7 and HET-1A cells were treated for 30 minutes, whereas, EPC-2 cells were treated for 15 minutes and then the media was replaced. […]
# For immunoprecipitation, cells were harvested by centrifugation at 200 g for 5 minutes and resuspended in PBS with protease inhibitor cocktail. […] The immunoprecipitated samples were analyzed by Western blotting with D11 antibody and anti-E tag HRP-conjugated antibodies from Abcam. The analyzed membranes were stripped in Restore™ Western Blot Stripping Buffer (ThermoFisher Scientific, Waltham, MA) at +50° C. for 1 hour, washed, and blocked with 5% milk and analyzed by Western blotting with p53 (DO1) antibody.
# [3] = system: isoLG protein adducts (LG-lysine lactam) in TE-7 cells; experiment: LG-lysine lactam adducts by LC/ESI/MS/MS in TE-7 cells treated with acidic bile salts (BA/A); format: cell-based, human; conditions: BA/A 100 μM pH 4.0 for 30 min, 2-HOBA 50 μM
# Source text: Formation of LG-lysine adducts was further verified by quantification of the LG-lysyl lactam adducts using liquid chromatography-electrospray ionization-tandem mass spectrometry (LC/ESI/MS/MS) in TE-7 cells treated with BA/A. Our studies confirmed that levels of LG-lysine lactam adduct are higher in BA/A treated than control samples. Our quantification analyses were based on specific transitions from the molecular ion at m/z=479.2 to the specific fragment at m/z=332.1. The elution of the two fragment ions found in BA/A treated samples was similar to the [13C6]lysine-lactam internal standard (FIG. 2A). As an additional control, TE-7 cells were treated with BA/A as above but in the presence of known isoLG scavenger 2-hydroxybenzylamine (2HOBA) and analyzed by mass spectrometry.
# Cell Lines: Human non-tumorous esophageal cell line (HET-1A) and human esophageal carcinoma cell line (TE-7) were purchased from ATCC. The morphology, karyotyping and PCR based techniques were used by ATCC to confirm the cell line identity. […]
# Detection of Levuglandinyl-Lysine Lactam Using Liquid Chromatography/Electrospray Ionization/Tandem Mass Spectrometry (LC/ESI/MS/MS): Levuglandinyl-lysine lactam was analyzed in TE-7 cells treated with acidic bile salts and control untreated cells using LC/ESI/MS/MS. […]
structure (smiles),measurement,setting,value
"NCc1ccccc1O [2-HOBA, 2-hydroxybenzylamine]",accumulation of isoLG adducts in esophageal tissues in vivo,[1],efficiently decreased isoLG protein adducts in mice in vivo; also recorded: prevents accumulation of isoLG adducts in vivo; also recorded: inhibited accumulation of isoLG adducts in vivo
same,accumulation of isoLG adducts in esophageal tissues in vivo,[1]; listed as 2HOBA,efficiently suppresses accumulation of reflux-induced protein adducts in vitro and in vivo
same,isoLG adducts: surgical animals treated with 2-HOBA versus sham control animals,[1]; mice,did not find significant difference
same,formation of p53 isoLG protein adducts,[2],significantly inhibited formation of p53 protein adducts; also recorded: inhibited the formation of p53 protein adducts
same,formation of isoLG protein adducts (LG-lysine lactam adduct levels),[3],higher in BA/A-treated samples compared to control and treated with isoLG scavenger 2-HOBA
same,formation of isoLG protein adducts (LG-lysine lactam adduct levels),[3]; listed as 2HOBA,inhibited formation of isoLG protein adducts
